Measurements taken from ChEMBL document CHEMBL6087389, “Hydrazone-Functionalized trans-A2B-Corroles: Effective Synergy in Photodynamic Therapy of Lung Cancer” (J Med Chem, 2024).
Activity calls are given as the source filed them. No cut-off for these calls is given here.

What was measured:
[1] = test system: NCI-H1299; experiment: Dark toxicity against human NCI-H1299 cells assessed as reduction in metabolic activity at 10 uM incubated for 4 hrs by MTT assay; assay type: cell-based; parameters: scale not given: the % may be the effect or the level left; details: nci-h1299, 4 h
[2] = test system: NCI-H1299; experiment: Induction of apoptosis in human NCI-H1299 cells assessed as early apoptotic cells at 500 nM preincubated for 24 hrs followed by irradiated with 7.5 to 10 mW/cm^-2 red light for 24 hrs by Annexin V and propidium iodide staining based flow cytometry relative to control; assay type: functional; details: time 48 hrs
[3] = Fluorescence property of the compound in THF assessed as fluorescence quantum yield by photoluminescence quantum yield spectrometer; assay type: physicochemical
[4] = test system: NCI-H1299; experiment: Induction of apoptosis in human NCI-H1299 cells assessed as early apoptotic cells at 100 nM preincubated for 24 hrs followed by irradiated with 7.5 to 10 mW/cm^-2 red light for 24 hrs by Annexin V and propidium iodide staining based flow cytometry relative to control; assay type: functional; details: time 48 hrs
[5] = test system: A549; experiment: Induction of apoptosis in human A549 cells assessed as viable cells at 500 nM preincubated for 24 hrs followed by irradiated with 7.5 to 10 mW/cm^-2 red light for 24 hrs by Annexin V and propidium iodide staining based flow cytometry relative to control; assay type: functional; details: A549, light or radiation study, time 48 hrs, read-out: Activity
[6] = Phototoxicity against human A549 cells assessed as reduction in cell viability preincubated for 24 hrs followed by 7.5 to 10 mW/cm^-2 red light irradiation and measured after 24 hrs by MTT assay; assay type: functional, cell-based; details: A549, light or radiation study
[7] = test system: NCI-H1299; experiment: Induction of apoptosis in human NCI-H1299 cells assessed as appearance of necrosis at 100 to 250 nM preincubated for 24 hrs followed by irradiated with 7.5 to 10 mW/cm^-2 red light for 24 hr by May-Grunwald/Giemsa staining by light microscopic analysis; assay type: functional, cell-based; details: dose 100-250 nM, time 48.0 hrs
[8] = test system: A549; experiment: Induction of apoptosis in human A549 cells assessed as early apoptotic cells at 100 to 500 nM preincubated for 24 hrs followed by irradiated with 7.5 to 10 mW/cm^-2 red light for 24 hrs by Annexin V and propidium iodide staining based flow cytometry relative to control; assay type: functional; details: dose 100-500 nM, time 48 hrs
[9] = Induction of singlet oxygen generation in THF assessed as singlet oxygen quantum yield by comparative photoluminescence method; assay type: functional
[10] = test system: A549; experiment: Dark toxicity against human A549 cells assessed as reduction in metabolic activity at 10 uM incubated for 4 hrs by MTT assay; assay type: cell-based; details: a549, 4 h
[11] = test system: NCI-H1299; experiment: Induction of apoptosis in human NCI-H1299 cells assessed as late apoptotic/necrotic cells at 500 nM preincubated for 24 hrs followed by irradiated with 7.5 to 10 mW/cm^-2 red light for 24 hrs by Annexin V and propidium iodide staining based flow cytometry relative to control; assay type: functional; details: time 48 hrs
[12] = test system: A549; experiment: Dark toxicity against human A549 cells assessed as reduction in metabolic activity at <1 uM incubated for 4 hrs by MTT assay; assay type: cell-based; details: a549, 4 h
[13] = test system: NCI-H1299; experiment: Induction of apoptosis in human NCI-H1299 cells assessed as reduction in viability at 100 to 500 nM preincubated for 24 hrs followed by irradiated with 7.5 to 10 mW/cm^-2 red light for 24 hrs by Annexin V and propidium iodide staining based flow cytometry relative to control; assay type: functional; details: dose 100-500 nM, time 48 hrs
[14] = test system: NCI-H1299; experiment: Dark toxicity against human NCI-H1299 cells assessed as reduction in metabolic activity at <1 uM incubated for 4 hrs by MTT assay; assay type: cell-based; details: nci-h1299, 4 h
[15] = Phototoxicity against human NCI-H1299 cells assessed as reduction in cell viability preincubated for 24 hrs followed by 7.5 to 10 mW/cm^-2 red light irradiation and measured after 24 hrs by MTT assay; assay type: functional, cell-based; details: NCI-H1299, light or radiation study
[16] = test system: NCI-H1299; experiment: Induction of apoptosis in human NCI-H1299 cells assessed as late apoptotic/necrotic cells at 100 nM preincubated for 24 hrs followed by irradiated with 7.5 to 10 mW/cm^-2 red light for 24 hrs by Annexin V and propidium iodide staining based flow cytometry relative to control; assay type: functional; details: time 48 hrs
[17] = test system: A549; experiment: Induction of apoptosis in human A549 cells assessed as late apoptotic/necrotic cells at 500 nM preincubated for 24 hrs followed by irradiated with 7.5 to 10 mW/cm^-2 red light for 24 hrs by Annexin V and propidium iodide staining based flow cytometry relative to control; assay type: functional; details: time 48 hrs
[18] = test system: A549; experiment: Induction of apoptosis in human A549 cells assessed as reduction in viable cells at 100 nM preincubated for 24 hrs followed by irradiated with 7.5 to 10 mW/cm^-2 red light for 24 hrs by Annexin V and propidium iodide staining based flow cytometry relative to control; assay type: functional; details: time 48 hrs
[19] = Fluorescence property of the compound in DMSO assessed as fluorescence quantum yield by photoluminescence quantum yield spectrometer; assay type: physicochemical
[20] = test system: A549; experiment: Induction of apoptosis in human A549 cells assessed as late apoptotic/necrotic cells at 100 to 500 nM preincubated for 24 hrs followed by irradiated with 7.5 to 10 mW/cm^-2 red light for 24 hrs by Annexin V and propidium iodide staining based flow cytometry relative to control; assay type: functional; details: dose 100-500 nM, time 48 hrs

- Activity [3]: 0.114
- Activity [19]: 0.282
Compound: C/C(=N\NS(=O)(=O)c1ccc(C)cc1)c1c2nc(c(-c3ccccc3)c3ccc([nH]3)c3ccc([nH]3)c(-c3ccccc3)c3ccc1[nH]3)C=C2
- Activity [1]: 73.8%
- Activity [2]: 19.8%
- Activity [4]: 12.7%
- viability at 0.5 µM [5]: 2%
- IC50 [6]: 101 nM
- Activity [7]: Active
- Activity [8]: 16.9%
- Activity [9]: 0.26
- Activity [10]: Non-toxic
- Activity [11]: 75.5%
- Activity [12]: Non-toxic
- Activity [13]: >=75%
- Activity [14]: Non-toxic
- IC50 [15]: 52.3 nM
- Activity [16]: 23.2%
- Activity [17]: 92.7%
- Activity [18]: 48%
- Activity [20]: 24.6%
